# Patent publication US20260048060A1, “POLYCYCLIC THYROID HORMONE b RECEPTOR AGONIST AND USE THEREOF” (CASCADE PHARMACEUTICALS, INC., priority 2022, published 2026)
# Columns and labels:
# THRβ [1] = target: T1, THRβ (Homo sapiens, UniProt P10828); assay: Time-resolved FRET (THR-FRET) agonist activity assay, GST-tagged THRβ LBD with SRC2 polypeptide; type: biochemical; details: ratio of THR-FRET EC50 values THRα/THRβ
# T1 construct: made in house; host or cells: E. coli BL21 (DE3)
# T1 sequence (P10828 217-461 limits assumed): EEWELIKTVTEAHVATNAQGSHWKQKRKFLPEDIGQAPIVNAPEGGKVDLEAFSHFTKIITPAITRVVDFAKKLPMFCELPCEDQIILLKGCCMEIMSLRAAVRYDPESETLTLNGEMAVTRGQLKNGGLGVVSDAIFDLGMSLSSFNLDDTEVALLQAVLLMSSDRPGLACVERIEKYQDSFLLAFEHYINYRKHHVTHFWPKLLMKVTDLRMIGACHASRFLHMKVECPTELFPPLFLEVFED
# Description: Experimental Example 2: Detection of Agonist Activities of Compounds Against THRα/β Based on Time-Resolved Fluorescence Resonance Energy Transfer (THR-FRET)
# By visiting NCBI, the THRα/β LBD domain sequences were found. The pET21-His-GST-dLBT-THRα LBD and pET21-His-GST-dLBT-THRβ LBD overexpression vectors were constructed by the fusion method, and sequenced to confirm the accuracy of the sequences.
# The correctly sequenced THRα LBD and THRβ LBD overexpression vectors were transfected into E. coli cells BL21 (DE3), and spread on an agar plate with ampicillin. Monoclones were picked out and amplified in an LB medium, and transferred into 1 L LB at a ratio of 1:100 for large-scale culture. When the OD value was at 0.8 to 1.2, 0.5 mM isopropyl-beta-D-thiogalactopyranoside (IPTG) was added, and induced overnight at 18° C. The bacteria were harvested, disrupted, and purified via the GST column and the molecular sieve to obtain two proteins His-GST-dLBT-THRα LBD and His-GST-dLBT-THRβ LBD.
# The proteins were taken out from a refrigerator at −80° C. The proteins with the GST-tagged THRα/β LBD domain and the Eu-labelled GST antibodies were thawed slowly on ice, and an assay buffer containing a final concentration of 5 mM dithiothreitol (DTT) was formulated.
# The starting concentration of the compound was 100 μM (in DMSO). The compound (100 μM in DMSO) was subjected to 3-fold isogradient dilution with DMSO to obtain a total of 11 isogradient concentrations. Subsequently, the above compounds at the isogradient concentration were further subjected to 50-fold dilution with an assay buffer containing 5 mM DTT.
# The final concentrations of all components were calculated based on a system with a final volume of 20 μL per well. To 18 μL of assay buffer containing 5 mM DTT, the GST-tagged THRα/β proteins, the SRC2 ([…]) polypeptide, XL665 (Cisobio, #610SAXLB), and the Eu-labeled GST antibody were added, and the final concentrations were 2 nM, 200 nM, 0.05 nM, and 7.6 nM respectively to formulate 18 μL of reaction mixture of the proteins, polypeptide, and antibody per well.
# 18 μL of reaction mixture and 2 μL of diluted compound were added into an optiplate-384-well plate, and reacted at room temperature for 24 h.
# The plate was read using an MD i3X multi-mode microplate reader with the excitation and emission wavelengths of 340 nm and 665 nm, respectively. The intensity of light at a wavelength of 616 nm generated by europium excited by 340 nm wavelength light from the MD i3X multi-mode microplate reader was used as the background. According to the different activation degrees of different compounds against THRα and THRβ, the intensity of the emission light at a wavelength of 665 nm generated by exciting XL665 with the exciting light at a wavelength of 616 nm was varied. The intensity ratio between these two light wavelengths (665 nm, 616 nm) was used as the activation activity of the compound against THRα or THRβ, and the ratio in the solvent DMSO group was used for normalization. The dose-response curve was fitted with four parameters using the GraphPad Prism 6.0 software, and the EC50 value was calculated.
# THRβ [2] = target: T2, THRβ (Homo sapiens, UniProt P10828); assay: Reporter gene (GAL4-THRβ-LBD / Dual-Glo luciferase) agonist activity assay in HEK293T cells; type: cell-based; details: ratio of reporter gene EC50 values THRα/THRβ
# T2 construct: expressed in transfected cells; host or cells: HEK293T
# T2 sequence (P10828 217-461): T1 sequence (P10828 217-461 limits assumed)
# Description: Experimental Example 1: Detection of THRα and THRβ Agonist Activities of Compounds Based on Reporter Gene Activity Assay Method
# 1.1 Construction and Preparation of Plasmids pGAL4-THR-LBD and pG5-Luc
# The pGAL4-THRα-LBD and pGAL4-THRβ-LBD plasmids used in the reporter gene assay system were constructed by a conventional molecular cloning method comprising the following main steps: the cDNA sequences of THRα (NM_003250) and THRβ (NM_000461) corresponding to the amino acid sequences of THRα (163-407AA) and THRβ (217-461AA) were inserted into the BamHI and NotI enzyme digestion sites of the pGAL4 vector by the PCR technique respectively to obtain the pGAL4-THRα-LBD and pGAL4-THRβ-LBD plasmids; the pG5-Luc (#E249A) and pRL-TK (#E2241) plasmids were purchased from Promega; the plasmids were transfected into the E. coli DH5α by the CaCl2 method, and after further culture and amplification, the plasmids were purified by Plasmid Extraction Kits (TIANGEN, #D107) to obtain the corresponding plasmid DNAs.
# 1.2 Co-Transfection of Plasmids into HEK293T Cells and Treatment with Compounds
# The HEK293T cells were inoculated into a 96-well plate at a density of 1×10^4/well the day before plasmid transfection. Cell transfection was conducted according to the instructions of the transfection reagent FuGENE® HD (Promega, #E2311). The main steps were as follows: taking one well as an example here, the plasmids pGAL4-THRα-LBD or pGAL4-THRβ-LBD, pG5-Luc, and pRL-TK were added in the proportions of 20 ng, 50 ng, and 5 ng to 10 μL of Opti-MEM™ I medium (Gibco, #11058021) and mixed well; subsequently, 0.25 uL of FuGENE® HD was added, mixed well, and then left at room temperature for 5 min; afterwards, 10 μL of the mixture was added to the cell wells containing 100 μL of culture medium. After cell co-transfection for 6 h, the compound was diluted in a 3-fold gradient with dimethyl sulfoxide at the highest concentration of 1 uM. The compound was added to the cell culture medium at a total of 10 concentrations for treatment for 24 h. There were a total of two duplicate wells for each concentration. Triiodothyronine (T3) was used as the positive control.
# 1.3 Dual-Glo Luciferase Assay
# After the cells were treated with the compound for 24 h, the cells were assayed according to the instructions of Dual-Glo® Luciferase Assay System (Promega, #E2940). The main steps were as follows: 50 μL of culture medium was aspirated from each well and discarded, and then 50 μL of Dual-Glo® Luciferase reagent was added and oscillated at room temperature for 10 min; 80 μL of lysis reaction solution was measured into a white opaque optiPlate-96-well plate, and the luminescence signal value (Firefly-Luc) of the Firefly luciferase was detected using an MD i3x multi-mode microplate reader; 40 μL of Dual-Glo® Stop & Glo® reagent was then added, and oscillated at room temperature for 10 min; the luminescence signal value (Renilla-Luc) of the Renilla luciferase was then detected using an MD i3x multi-mode microplate reader. The Firefly-Luc/Renilla-Luc ratio was used as the activation activity of the compound against THR, and the ratio in the solvent DMSO group was used for normalization; the dose-response curve was fitted with four parameters using the GraphPad Prism6.0 software, and the EC50 value was calculated.
Structure (SMILES),Selectivity (THRα/THRβ) (THRβ [1]),Selectivity (THRα/THRβ) (THRβ [2])
NC(=O)c1ccccc1SCc1c(Cl)cc(-n2ncc(=O)[nH]c2=O)cc1Cl [Compound 19],††† (†††: 20 ≥ THRα/β > 10;),
NC(=O)c1ccccc1OCc1c(Cl)cc(-n2ncc(=O)[nH]c2=O)cc1Cl [Compound 14],†† (††: 10 ≥ THRα/β;),† (†: 5 ≥ THRα/β;)
CNC(=O)c1ccccc1OCc1c(Br)cc(-n2nc(C#N)c(=O)[nH]c2=O)cc1Br [Compound 12],†† (††: 10 ≥ THRα/β;),
CCNC(=O)c1ccccc1SCc1c(Cl)cc(-n2ncc(=O)[nH]c2=O)cc1Cl [Compound 24],†† (††: 10 ≥ THRα/β;),
N#Cc1nn(-c2cc(Cl)c(CSc3ccccc3C(=O)O)c(Cl)c2)c(=O)[nH]c1=O [Compound 6],††† (†††: 20 ≥ THRα/β > 10;),
Cc1ccc(C(N)=O)c(OCc2c(Cl)cc(-n3ncc(=O)[nH]c3=O)cc2Cl)c1 [Compound 33],††† (†††: 20 ≥ THRα/β > 10;),
N#Cc1nn(-c2cc(Cl)c(CNc3ccccc3C(=O)O)c(Cl)c2)c(=O)[nH]c1=O [Compound 10],††† (†††: 20 ≥ THRα/β > 10;),
COc1ccc(OCc2c(Cl)cc(-n3ncc(=O)[nH]c3=O)cc2Cl)c(C(N)=O)c1 [Compound 69],††† (†††: 20 ≥ THRα/β > 10;),† (†: 5 ≥ THRα/β;)
[2H]C(Oc1ccccc1C(=O)NC)c1c(Br)cc(-n2nc(C(F)F)c(=O)[nH]c2=O)cc1Br (stereo not drawn) [Compound 106],†† (††: 10 ≥ THRα/β;),† (†: 5 ≥ THRα/β;)
O=C(O)c1ccccc1SCc1c(Cl)cc(-n2ncc(=O)[nH]c2=O)cc1Cl [Compound 18],††† (†††: 20 ≥ THRα/β > 10;),
CNC(=O)c1ccccc1OCc1c(Cl)cc(-n2ncc(=O)[nH]c2=O)cc1Cl [Compound 17],†† (††: 10 ≥ THRα/β;),† (†: 5 ≥ THRα/β;)
[2H]C(Oc1ccccc1C(=O)NC([2H])([2H])[2H])c1c(Br)cc(-n2nc(C(F)F)c(=O)[nH]c2=O)cc1Br (stereo not drawn) [Compound 110],†† (††: 10 ≥ THRα/β;),† (†: 5 ≥ THRα/β;)
CC(C)NC(=O)c1ccccc1SCc1c(Cl)cc(-n2ncc(=O)[nH]c2=O)cc1Cl [Compound 22],††† (†††: 20 ≥ THRα/β > 10;),
CNC(=O)c1ccccc1SCc1c(Br)cc(-n2nc(C#N)c(=O)[nH]c2=O)cc1Br [Compound 13],†† (††: 10 ≥ THRα/β;),
N#Cc1nn(-c2cc(Br)c(COc3ccccc3C(N)=O)c(Br)c2)c(=O)[nH]c1=O [Compound 11],†† (††: 10 ≥ THRα/β;),
NC(=O)c1sccc1OCc1c(Cl)cc(-n2ncc(=O)[nH]c2=O)cc1Cl [Compound 45],†† (††: 10 ≥ THRα/β;),† (†: 5 ≥ THRα/β;)
CNC(=O)c1ccccc1SCc1c(Cl)cc(-n2nc(C(F)F)c(=O)[nH]c2=O)cc1Cl [Compound 55],†† (††: 10 ≥ THRα/β;),
CNC(=O)c1ccccc1NCc1c(Cl)cc(-n2nc(C#N)c(=O)[nH]c2=O)cc1Cl [Compound 9],†† (††: 10 ≥ THRα/β;),
CNC(=O)c1ccccc1OCc1c(Cl)cc(-n2nc(C#N)c(=O)[nH]c2=O)cc1Cl [Compound 2],†† (††: 10 ≥ THRα/β;),
N#Cc1nn(-c2cc(Cl)c(COc3ccccc3C(N)=O)c(Cl)c2)c(=O)[nH]c1=O [Compound 1],†† (††: 10 ≥ THRα/β;),
[2H]C([2H])([2H])NC(=O)c1ccccc1OCc1c(Br)cc(-n2nc(C(F)F)c(=O)[nH]c2=O)cc1Br [Compound 109],†† (††: 10 ≥ THRα/β;),† (†: 5 ≥ THRα/β;)
[2H]C([2H])([2H])NC(=O)c1ccccc1OCc1c(Br)cc(-n2nc(C([2H])(F)F)c(=O)[nH]c2=O)cc1Br [Compound 112],†† (††: 10 ≥ THRα/β;),† (†: 5 ≥ THRα/β;)
O=C(O)c1ccccc1NCc1c(Cl)cc(-n2ncc(=O)[nH]c2=O)cc1Cl [Compound 26],††† (†††: 20 ≥ THRα/β > 10;),
CNC(=O)c1ccccc1OCc1c(Cl)cc(-n2nc(C(F)F)c(=O)[nH]c2=O)cc1Cl [Compound 53],†† (††: 10 ≥ THRα/β;),† (†: 5 ≥ THRα/β;)
"CNC(=O)c1ccccc1Oc1c(Cl)cc(-n2ncc(=O)[nH]c2=O)cc1Cl [Compound 114, reference compound]",†† (††: 10 ≥ THRα/β;),
[2H]C(Oc1ccccc1C(=O)NC)c1c(Br)cc(-n2nc(C([2H])(F)F)c(=O)[nH]c2=O)cc1Br (stereo not drawn) [Compound 111],†† (††: 10 ≥ THRα/β;),† (†: 5 ≥ THRα/β;)
O=C(NO)c1ccccc1OCc1c(Cl)cc(-n2ncc(=O)[nH]c2=O)cc1Cl [Compound 42],†† (††: 10 ≥ THRα/β;),
CNC(=O)c1ccccc1SCc1c(Cl)cc(-n2ncc(=O)[nH]c2=O)cc1Cl [Compound 20],††† (†††: 20 ≥ THRα/β > 10;),
CNC(=O)c1ccccc1SCc1c(Cl)cc(-n2nc(C#N)c(=O)[nH]c2=O)cc1Cl [Compound 7],††† (†††: 20 ≥ THRα/β > 10;),
